“Also recorded” adds a separate entry of the source.
Key:
[1] = tested on: common carotid artery of rabbits (angioplasty site); experiment: Study using radiolabeled platelets and fibrinogen in vivo after balloon angioplasty of the carotid artery; details: rabbit carotid artery, monitored four hours after angioplasty; heparin 100 U/kg bolus followed by 25 U/kg/h infusion; dipyridamole 0.25 mg/kg followed by 0.45 mg/kg/hr
Protocol: FIG. 1: Simultaneous detection of ^99Tc labeled platelets and ^123I-labeled fibrinogen at one minute intervals after angioplasty of the common carotid artery of rabbits. […] No injury measurements showing constant radioactivity.
FIG. 2: Deposition of radioactive labeled platelets (^99Tc) and fibrinogen (123I) at angioplasty site after treatment with dipyridamole (0.25 mg/kg followed by 0.45 mg/kg/hr).
The effects of dipyridamole and heparin were investigated using platelets radiolabeled with ^99Tc and fibrinogen labeled with ^123I. The method is described in Lorenz, M. et al., Nuclear Instruments and Methods in Physics Research A., 1994, 353:448-452. An energy-sensitive solid-state radiation detector was placed to surround each carotid artery in rabbits. After inducing injury through balloon angioplasty, the accretion of platelets and fibrinogen was monitored for four hours. […] Accretion was not detected in radiolabeled platelets injected 30 minutes after injury; apparently the angioplasty site had been passivated by endogenous platelet adherence. […] (FIG. 2).

[2] = ESPS-2; compared with low-dose aspirin / aspirin alone; cited from earlier work

Row | Compound | accretion (deposition) of 99Tc labeled platelets at angioplasty site [1] | accretion (deposition) of 123I-labeled fibrinogen at angioplasty site [1] | reduction of stroke risk [2]
1 | OCCN(CCO)c1nc(N2CCCCC2)c2nc(N(CCO)CCO)nc(N3CCCCC3)c2n1 [dipyridamole, 2,6-bis(diethanolamino)-4,8-dipiperidino-pyrimido[5,4-d]pyrimidine] | reduced; also recorded: reduction in platelet aggregation which was similar to that seen with heparin | almost entirely blocked; also recorded: far greater with dipyridamole than with heparin | as effective as low-dose aspirin
2 | heparin | reduction of platelet as well as fibrinogen accretion; also recorded: reduced accumulation of both platelets and fibrinogen | reduction of platelet as well as fibrinogen accretion; also recorded: reduced accumulation of both platelets and fibrinogen | –

Source: patent publication US20080113934A1, “USE OF DIPYRIDAMOLE OR MOPIDAMOL FOR TREATMENT AND PREVENTION OF FIBRIN-DEPENDENT MICROCIRCULATION DISORDERS” (priority 1999, published 2008)
